Results: patent US6075060A, “Trans olefinic diols with surfactant properties” (Air Products and Chemicals, Inc., priority 1998, dated 2000)
≈ marks a conversion by molar mass, not a printed value.

Experiments:
[1] = Water solubility (solubility limit); assay type: physicochemical; conditions: for solubility: water
[2] = Equilibrium surface tension by maximum-bubble-pressure method; assay type: physicochemical; conditions: for EST at Solubility Limit: trans isomers, Table 8; for EST of 0.1 wt % solution: cis and trans isomers, Table 7; for EST, trans olefin: 0.05 wt. %, Table 4; for Equilibrium Surface Tension: 0.1 wt %, 23° C., 1 bubble/second, Table 2
Experimental: The equilibrium surface tension is measured using the maximum-bubble-pressure method at 23° C. and 1 bubble/second. This method is described in Langmuir, Vol. 2 (1986), pp. 428-432. When measured at the solubility limit of the surfactant, an equilibrium surface tension of 40 dynes/cm or less is desired; preferably 35 dynes/cm or less.
The equilibrium surface tension was measured using the maximum-bubble-pressure method at 23° C. and 1 bubble/second at 0.1 wt %. The results, presented in Table 2, indicate that olefinic diols with 10 or less carbons are poor surfactants and the cis isomer has slightly better equilibrium surface tension than the trans isomer.
The equilibrium surface tension of the compounds of Examples 3, 4 and 5 was measured 0.05 wt. %.

SMILES | solubility ([1]; cis and trans isomers, Table 7) [µg/mL] | EST of 0.1 wt % solution [2] [dynes/cm] | other results
CCCCC(C)(O)/C=C/C(C)(O)CCCC (centres unmarked) [Example 9, 5,8-dimethyl-6-dodecene-5,8-diol] |  |  | solubility ([1]; trans isomers, Table 8): 1000 µg/mL (≈ 4380 µM); EST at Solubility Limit [2]: 33 dynes/cm
CC(C)CCC(C)(O)/C=C/C(C)(O)CCC(C)C (stereo not drawn) [Example 8 trans, 2,5,8,11-tetramethyl-6-dodecene-5,8-diol] | 300 (≈ 1170 µM) | 33 | Solubility Limit ([1]; trans isomers, Table 8): 0.03 wt % in water; EST at Solubility Limit [2]: 33 dynes/cm
CC(C)CC(C)(O)/C=C\C(C)(O)CC(C)C (stereo not drawn) [Example 7 cis, 2,4,7,9-tetramethyl-5-decene-4,7-diol] | < 100 | 58 | 
CC(C)CCC(C)(O)/C=C\C(C)(O)CCC(C)C (stereo not drawn) [Example 8 cis, 2,5,8,11-tetramethyl-6-dodecene-5,8-diol] | < 100 | 68 | 
CCCCCCC(C)(O)/C=C/C(C)(O)CCCCCC (centres unmarked) [Example 3] |  |  | EST, trans olefin [2]: 67 DYNES/CM
CCC(C)(O)/C=C/C(C)(O)CC (stereo not drawn) [Example 2 trans] |  |  | Equilibrium Surface Tension [2]: 59 dynes/cm
CC(O)(/C=C/C(C)(O)c1ccccc1)c1ccccc1 (centres unmarked) [Example 4] |  |  | EST, trans olefin [2]: 67 DYNES/CM
CCC(O)(/C=C/C(O)(CC)CC)CC [Example 6 trans, 3,6-diethyl-4-octene-3,6-diol] | 5000 (≈ 25000 µM) | 50 | 
CCCCC(O)(/C=C/C(O)(CCCC)CCCC)CCCC [Example 5] |  |  | EST, trans olefin [2]: 69 DYNES/CM
CCC(O)(/C=C\C(O)(CC)CC)CC [Example 6 cis, 3,6-diethyl-4-octene-3,6-diol] | 100 (≈ 499 µM) | 54 | 
CCC(C)(O)/C=C\C(C)(O)CC (stereo not drawn) [Example 2 cis] |  |  | Equilibrium Surface Tension [2]: 51 dynes/cm
CC(C)CC(C)(O)/C=C/C(C)(O)CC(C)C (stereo not drawn) [Example 7 trans, 2,4,7,9-tetramethyl-5-decene-4,7-diol] | 2000 (≈ 8760 µM) | 34 | Solubility Limit ([1]; trans isomers, Table 8): 0.2 wt % in water; EST at Solubility Limit [2]: 29 dynes/cm
